Test results published in US9131716B2, “Use of neoflavonoids for flavor modification” (SYMRISE AG, priority 2011, dated 2015).
Marks after values point to notes of the source that are not given here.

Experiments:
[1] = Reduction of bitterness of a naringin solution, panel of experts; format: in vivo; conditions: 100 ppm naringin
Source text: (§1) In order to quantify the reduction (i.e. the masking or decrease) of the impression of bitterness in a sample, the bitterness of a solution containing 500 ppm caffeine or 200 ppm theobromine or 100 ppm naringin or 250 ppm salicin was compared by a panel of experts in each case with a sample that contained 500 ppm caffeine or 200 ppm theobromine or 100 ppm naringin or 250 ppm salicin and additionally the amount stated in each case of a substance to be assessed (with respect to capacity for reducing bitterness) (classification: 1 [not bitter] through 10 [extremely bitter]). The evaluation, i.e. calculation of the reduction (in %) of the impression of bitterness, was based in each case on the mean values of the appraisals of the panel of experts.

[2] = Reduction of bitterness of a salicin solution, panel of experts; format: in vivo; conditions: 250 ppm salicin, 50 ppm test substance
Source text: as §1

[3] = Reduction of bitterness of a theobromine solution, panel of experts; format: in vivo; conditions: 300 ppm theobromine; for Impression of bitterness (1-10) b) with test substance: scale 1-10
[4] = Reduction of bitterness of a caffeine solution, panel of experts; format: in vivo; conditions: 500 ppm caffeine; for Impression of bitterness (1-10) b) with test substance: scale 1-10
Source text: as §1

[5] = Reduction of bitterness/astringency of an EGCG solution as a function of time, panel of experts; format: in vivo; conditions: 750 ppm EGCG + 125 ppm ascorbic acid, 50 ppm test substance
Source text: In order to quantify the reduction (i.e. the masking or decrease) of the impression of bitterness or astringency in a sample over a specified course of time, the bitterness, or astringency of a solution containing 750 ppm epigallocatechin gallate (EGCG) and 125 ppm ascorbic acid was compared by a panel of experts in each case with a sample that contained 750 ppm epigallocatechin gallate, 125 ppm ascorbic acid and additionally the amount stated in each case of a substance to be assessed (with respect to capacity for reducing bitterness), in this case a racemic mixture of compounds (7) and (8) (classification: 1 [not bitter] through 10 [extremely bitter]; or 1 [not astringent] through 10 [extremely astringent]). […] The samples were assessed by the members of the panel one after another after neutralization. The evaluation, i.e. calculation of the reduction (in %) of the impression of bitterness/astringency was based at each measurement time point in each case on the mean values of the appraisals of the panel of experts for the epigallocatechin gallate solution and the sample to be compared, containing epigallocatechin gallate and a substance to be assessed.

[6] = test system: Caco-2 cells; conditions: from Chem. Pharm. Bull. 2010, 58, 242-246; cited from earlier work
[7] = test system: BGC823 cancer cell line; conditions: from CN 101906090; cited from earlier work
[8] = 25 ppm test substance, scale 1-10

## O=C1CC(c2ccccc2O)c2c(O)cc(O)cc2O1 (racemic) [(1) + (2), 5,7-dihydroxy-4-(2-hydroxyphenyl)chroman-2-one]
[1]; 5 ppm test substance
  % reduction of the impression of bitterness: 31.7%
[1]; 5 ppm test substance, scale 1 [not bitter] through 10 [extremely bitter]
  Impression of bitterness (1-10) b) with test substance: 3.7 ± 2.6

## COc1cc(C2CC(=O)Oc3cc(O)cc(O)c32)ccc1O (racemic) [(5) + (6), 5,7-dihydroxy-4-(4-hydroxy-3-methoxyphenyl)chroman-2-one]
[2]
  % reduction of the impression of bitterness: 11.1%
[2]; scale 1-10
  Impression of bitterness (1-10) b) with test substance: 5.9 ± 2.5
[1]; 25 ppm test substance
  % reduction of the impression of bitterness: 49.0%
[1]; [8]
  Impression of bitterness (1-10) b) with test substance: 3.1 ± 1.4
[3]; 25 ppm test substance
  % reduction of the impression of bitterness: 30.3%
  Impression of bitterness (1-10) b) with test substance: 3.1 ± 1.6
[4]; 50 ppm test substance
  % reduction of the impression of bitterness: 23.5%
  Impression of bitterness (1-10) b) with test substance: 3.0 ± 1.3

## O=C1CC(c2ccc(O)cc2)c2c(O)cc(O)cc2O1 (racemic) [(7) + (8), 5,7-dihydroxy-4-(4-hydroxyphenyl)chroman-2-one]
[1]; 25 ppm test substance
  % reduction of the impression of bitterness: 48.6%
[1]; [8]
  Impression of bitterness (1-10) b) with test substance: 2.9 ± 1.9
[3]; 10 ppm test substance
  % reduction of the impression of bitterness: 21.7%
  Impression of bitterness (1-10) b) with test substance: 3.6 ± 1.5
[5]; time 0 s
  % reduction of the impression of astringency: −1%
  % reduction of the impression of bitterness: −14%
[5]; time 10 s
  % reduction of the impression of astringency: −7%
  % reduction of the impression of bitterness: −22%*
[5]; time 30 s
  % reduction of the impression of astringency: −7%
  % reduction of the impression of bitterness: −25%*
[5]; time 50 s
  % reduction of the impression of astringency: −19%
  % reduction of the impression of bitterness: −35%*
[5]; time 70 s
  % reduction of the impression of astringency: −15%
  % reduction of the impression of bitterness: −29%
[4]; 25 ppm test substance
  % reduction of the impression of bitterness: 15.5%
  Impression of bitterness (1-10) b) with test substance: 3.4 ± 1.4

## COc1cc(C2CC(=O)Oc3cc(O)cc(OC)c32)cc(OC)c1OC (centres unmarked) [(40)]
[6]
  cytotoxicity against Caco-2 cells: strong cytotoxicity

## O=C1CC(c2ccc(O)cc2)c2ccc(O)cc2O1 (racemic) [(17) + (18), 7-hydroxy-4-(4-hydroxyphenyl)chroman-2-one]
[1]; 25 ppm test substance
  % reduction of the impression of bitterness: 44.3%
[1]; [8]
  Impression of bitterness (1-10) b) with test substance: 3.0 ± 1.6

## COc1ccc(C2CC(=O)Oc3cc(O)ccc32)cc1O (centres unmarked) [(39)]
[7]
  effectiveness against the BGC823 cancer cell line: effective

## COc1cc(C2CC(=O)Oc3cc(O)ccc32)ccc1O (racemic) [(23) + (24), 7-hydroxy-4-(4-hydroxy-3-methoxyphenyl)chroman-2-one]
[3]; 25 ppm test substance
  % reduction of the impression of bitterness: 22.4%
  Impression of bitterness (1-10) b) with test substance: 3.5 ± 1.6
